Source: PubChem BioAssay AID248 (DTP/NCI, 2004)
“And” between values parts separate entries of the source, which are not always exact repeats. Equal values may be shown once. Toxic doses and inconclusive results are not listed. Rule as the data show it: active = T/C of 150% or more; inactive = T/C below 125%.

Test system: L1210 leukemia ip in BDF1 mice, survival T/C
Assay: NCI In Vivo Anticancer Drug Screen. Data for tumor model L1210 Leukemia (intraperitoneal) in B6D2F1 (BDF1) mice
Conditions: endpoint: mean survival time, higher = longer survival
Method in brief: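 Value reflects the ratio of survival in compound-treated mice to survival in vehicle-treated controls, with both groups carrying the same transplanted tumor.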

[1] = dose: 100.0 mg/kg/injection, schedule: Q04DX002 (ip), vehicle: Klucel (hydroxypropylcellulose) (HPC)
[2] = dose: 200.0 mg/kg/injection, schedule: Q04DX002 (ip), vehicle: Klucel (hydroxypropylcellulose) (HPC)
[3] = dose: 400.0 mg/kg/injection, schedule: Q04DX002 (ip), vehicle: Klucel (hydroxypropylcellulose) (HPC)
[4] = dose: 100.0 mg/kg/injection, schedule: Q01DX009 (ip), vehicle: saline with Tween-80
[5] = dose: 200.0 mg/kg/injection, schedule: Q01DX009 (ip), vehicle: saline with Tween-80
[6] = dose: 100.0 mg/kg/injection, schedule: Q01DX001 (ip), vehicle: Klucel (hydroxypropylcellulose) (HPC)
[7] = dose: 200.0 mg/kg/injection, schedule: Q01DX001 (ip), vehicle: Klucel (hydroxypropylcellulose) (HPC)
[8] = dose: 400.0 mg/kg/injection, schedule: Q01DX001 (ip), vehicle: Klucel (hydroxypropylcellulose) (HPC)
[9] = dose: 100.0 mg/kg/injection, schedule: Q04DX003 (ip), vehicle: Klucel (hydroxypropylcellulose) (HPC)
[10] = dose: 200.0 mg/kg/injection, schedule: Q04DX003 (ip), vehicle: Klucel (hydroxypropylcellulose) (HPC)
[11] = dose: 400.0 mg/kg/injection, schedule: Q04DX003 (ip), vehicle: Klucel (hydroxypropylcellulose) (HPC)
[12] = dose: 100.0 mg/kg/injection, schedule: Q04DX003 (ip), vehicle: saline with Tween-80
[13] = dose: 200.0 mg/kg/injection, schedule: Q04DX003 (ip), vehicle: saline with Tween-80
[14] = dose: 400.0 mg/kg/injection, schedule: Q04DX003 (ip), vehicle: saline with Tween-80
[15] = dose: 100.0 mg/kg/injection, schedule: Q01DX009 (ip), vehicle: saline
[16] = dose: 100.0 mg/kg/injection, schedule: Q04DX003 (ip), vehicle: saline
[17] = dose: 200.0 mg/kg/injection, schedule: Q01DX009 (ip), vehicle: saline
[18] = dose: 200.0 mg/kg/injection, schedule: Q04DX003 (ip), vehicle: saline
[19] = dose: 400.0 mg/kg/injection, schedule: Q01DX009 (ip), vehicle: saline
[20] = dose: 100.0 mg/kg/injection, schedule: Q01DX009 (ip), vehicle: Klucel (hydroxypropylcellulose) (HPC)
[21] = dose: 200.0 mg/kg/injection, schedule: Q01DX009 (ip), vehicle: Klucel (hydroxypropylcellulose) (HPC)
[22] = dose: 400.0 mg/kg/injection, schedule: Q01DX009 (ip), vehicle: Klucel (hydroxypropylcellulose) (HPC)
[23] = dose: 50.0 mg/kg/injection, schedule: Q01DX009 (ip), vehicle: saline with Tween-80
[24] = dose: 50.0 mg/kg/injection, schedule: Q04DX003 (ip), vehicle: saline

Measured: T/C

CC(=O)Nc1ccc2ccc3ccc4ccccc4c3c2c1
inactive: dose: 3.12 mg/kg/injection, schedule: Q04DX002 (ip), vehicle: saline with Tween-80 111 % of control | dose: 6.25 mg/kg/injection, schedule: Q04DX002 (ip), vehicle: saline with Tween-80 111 % of control | dose: 12.5 mg/kg/injection, schedule: Q04DX002 (ip), vehicle: saline with Tween-80 108 % of control | dose: 25.0 mg/kg/injection, schedule: Q04DX002 (ip), vehicle: saline with Tween-80 103 % of control | dose: 50.0 mg/kg/injection, schedule: Q04DX002 (ip), vehicle: saline with Tween-80 102 % of control

CC(=O)c1cccc(NC(=O)COc2cc(Cl)c(Cl)cc2Cl)c1
inactive: [1] 106 % of control | [2] 113 % of control | [3] 102 % of control

CSc1nc(N)c(C#N)cc1C#N
inactive: [4] 88 % of control | [5] 88 % of control | dose: 400.0 mg/kg/injection, schedule: Q01DX009 (ip), vehicle: saline with Tween-80 88 % of control

COc1ccc(S(=O)(=O)NCCC#N)cc1NC(C)=O
inactive: [6] 95 % of control | dose: 100.0 mg/kg/injection, schedule: Q01DX009 (ip), vehicle: saline sonified 96 % of control | [7] 97 % of control | dose: 200.0 mg/kg/injection, schedule: Q01DX009 (ip), vehicle: saline sonified 96 % of control | [8] 97 % of control | dose: 400.0 mg/kg/injection, schedule: Q01DX009 (ip), vehicle: saline sonified 107 % of control

CNC(=O)NCC1OC(OC)C(O)C(O)C1O (stereo unspecified)
inactive: [9] 100 % of control | [10] 107 % of control | [11] 100 % of control

CCOC(=O)Cc1ccc2ccccc2c1
inactive: [12] 100 % of control | [13] 96 % of control | [14] 104 % of control

COc1ccccc1C(C#N)N1CCCN(C(C#N)c2ccccc2OC)C1c1cc(Cl)cc(Cl)c1O (stereo unspecified)
inactive: [15] 103 % of control | [16] 112 % of control | [17] 88 % of control | [18] 97 % of control | [19] 90 % of control | dose: 400.0 mg/kg/injection, schedule: Q04DX003 (ip), vehicle: saline 97 % of control

Nc1cc(Nc2ccc(S(N)(=O)=O)cc2)nc(N)n1
inactive: [9] 93 % of control | [10] 97 % of control | [11] 93 % of control

C(=C\c1ccccn1)/c1ccccc1
inactive: [9] 100 % of control | [10] 94 % of control | [11] 103 % of control

O=C(c1ccccc1)C(Oc1ccccc1)c1ccccc1 (stereo unspecified)
inactive: dose: 100.0 mg/kg/injection, schedule: Q04DX002 (ip), vehicle: other 111 % of control | dose: 200.0 mg/kg/injection, schedule: Q04DX002 (ip), vehicle: other 107 % of control | dose: 400.0 mg/kg/injection, schedule: Q04DX002 (ip), vehicle: other 100 % of control

CCSC(=O)N1C=Cc2ccccc2C1C#N (stereo unspecified)
inactive: [6] 95 % of control | [20] 95 % of control | [7] 90 % of control | [21] 95 % of control | [8] 101 % of control | [22] 108 % of control

Cc1ccc(N2CCN(Cc3ccc4ccccc4c3)CC2)cc1
inactive: [12] 102 % of control | [13] 94 % of control | [14] 100 % of control

Nc1nc(N)c(-c2ccc(Cl)c(Cl)c2)c(CCc2ccc(CNC(=O)c3cc(S(=O)(=O)F)ccc3Cl)cc2)n1
inactive: dose: 100.0 mg/kg/injection, schedule: Q01DX001 (ip), vehicle: saline with Tween-80 97 % of control | dose: 200.0 mg/kg/injection, schedule: Q01DX001 (ip), vehicle: saline with Tween-80 94 % of control | dose: 400.0 mg/kg/injection, schedule: Q01DX001 (ip), vehicle: saline with Tween-80 94 % of control

O=C1CC(=P(c2ccccc2)(c2ccccc2)c2ccccc2)C(=O)N1c1ccccc1
inactive: [23] 100 % of control | [20] 94 % of control | [4] 100 % of control | [1] 106 % of control | [21] 102 % of control | [5] 100 % of control | [2] 109 % of control | [22] 94 % of control | [3] 98 % of control

C1CCC(OB2OB(OC3CCCCC3)OB(OC3CCCCC3)O2)CC1
inactive: [24] 93 % of control | dose: 100.0 mg/kg/injection, schedule: Q01DX001 (ip), vehicle: saline 93 % of control | [15] 97 % of control | [16] 98 % of control | dose: 200.0 mg/kg/injection, schedule: Q01DX001 (ip), vehicle: saline 98 % of control | [17] 110 % of control | [18] 103 % of control | dose: 400.0 mg/kg/injection, schedule: Q01DX001 (ip), vehicle: saline 86 % of control | [19] 111 % of control

CCN(CCN)c1cccc(C)c1
inactive: dose: 100.0 mg/kg/injection, schedule: Q04DX003 (ip), vehicle: saline sonified 92 % of control

COc1cc([N+](C)(C)C)nc(OC)n1
inactive: dose: 22.0 mg/kg/injection, schedule: Q01DX Z (ip), vehicle: saline 98 % of control | dose: 34.0 mg/kg/injection, schedule: Q01DX Z (ip), vehicle: saline 110 % of control | dose: 50.0 mg/kg/injection, schedule: Q01DX Z (ip), vehicle: saline 104 % of control

O=C(O)CC(C(=O)O)/C(=C\c1ccccc1)c1ccccc1 (stereo unspecified)
inactive: dose: 100.0 mg/kg/injection, schedule: Q04DX002 (ip), vehicle: saline 94 % of control | dose: 200.0 mg/kg/injection, schedule: Q04DX002 (ip), vehicle: saline 113 % of control | dose: 400.0 mg/kg/injection, schedule: Q04DX002 (ip), vehicle: saline 110 % of control

CCOC(=O)NN=C1CCCC1
inactive: [23] 94 % of control | [4] 97 % of control

COc1ccc(/C=N/NC(=O)c2ccc(OC)cc2)cc1
inactive: [9] 101 % of control | [10] 90 % of control | [11] 92 % of control

CC(C)(S)C(N)C(N)=O (stereo unspecified)
inactive: [1] 103 % of control | [2] 97 % of control | [3] 97 % of control

NC1Cc2ccccc2C1
inactive: dose: 12.5 mg/kg/injection, schedule: Q01DX009 (ip), vehicle: saline 98 % of control | dose: 25.0 mg/kg/injection, schedule: Q01DX009 (ip), vehicle: saline 110 % of control and 93 % of control | dose: 25.0 mg/kg/injection, schedule: Q04DX003 (ip), vehicle: saline 104 % of control | dose: 50.0 mg/kg/injection, schedule: Q01DX009 (ip), vehicle: saline 92 % of control and 95 % of control | [24] 109 % of control | [15] 106 % of control and 92 % of control | [16] 96 % of control | [18] 92 % of control
